Measurements reported in patent EP0908457B1, “3-(1,2-benzisothiazol- and isoxazol-5-Y1)-2,4(1H,3H)-pyrimidinedione or thione and 3-(1,2-benzisothiazol- and isoxazol-5-y1)-4(3H)-pyrimidinone or thione herbicidal agents” (BASF AKTIENGESELLSCHAFT, priority 1997, dated 1999).

How the values were obtained:
Sagittaria pygmaea, L. = experiment: Preemergence weed control under flooded paddy conditions, SAGPY (Arrowhead (Pygmaea)); format: in vivo; conditions: preemergence, flooded paddy, rated three to four weeks after treatment
[1] = system: Cyperus serotinus, Rottb.; experiment: Preemergence weed control under flooded paddy conditions, CYPSE (Flatsedge); format: in vivo; conditions: preemergence, rated three to four weeks after treatment
[2] = system: Oryza sativa, (L.) Tebonnet; experiment: Rice tolerance to post-transplant applications under flooded paddy conditions (Example 187), ORYSAT (Rice, Tebonnet); conditions: rated three to four weeks after treatment
Cyperus iria = experiment: Preemergence weed control under flooded paddy conditions, CYPIR (Rice Flatsedge); format: in vivo; conditions: preemergence, flooded paddy, rated three to four weeks after treatment
[3] = system: Echinochloa oryzoides (Ard.) Fritsch.; experiment: Preemergence weed control under flooded paddy conditions, ECHORC (Watergrass (Calif.)); format: in vivo; conditions: preemergence, flooded paddy, rated three to four weeks after treatment
[4] = system: Monochoria vaginalis, Presl.; experiment: Preemergence weed control under flooded paddy conditions, MOOVA (Monochoria); format: in vivo; conditions: preemergence, flooded paddy, rated three to four weeks after treatment

SMILES	SAGPY herbicidal effect rating (Sagittaria pygmaea, L.; Rate 0.0313 kg/ha)	SAGPY herbicidal effect rating (Sagittaria pygmaea, L.; Rate 0.0625 kg/ha)	SAGPY herbicidal effect rating (Sagittaria pygmaea, L.; Rate 0.1250 kg/ha)	CYPSE herbicidal effect rating ([1]; Rate 0.0313 kg/ha)	CYPSE herbicidal effect rating ([1]; Rate 0.0625 kg/ha)	CYPSE herbicidal effect rating ([1]; Rate 0.1250 kg/ha)	ORYSAT herbicidal effect rating ([2]; Rate 0.0313 kg/ha)	ORYSAT herbicidal effect rating ([2]; Rate 0.0625 kg/ha)	ORYSAT herbicidal effect rating ([2]; Rate 0.1250 kg/ha)	CYPIR herbicidal effect rating (Cyperus iria; Rate 0.0313 kg/ha)	CYPIR herbicidal effect rating (Cyperus iria; Rate 0.0625 kg/ha)	CYPIR herbicidal effect rating (Cyperus iria; Rate 0.1250 kg/ha)	ECHORC herbicidal effect rating ([3]; Rate 0.0313 kg/ha)	ECHORC herbicidal effect rating ([3]; Rate 0.0625 kg/ha)	ECHORC herbicidal effect rating ([3]; Rate 0.1250 kg/ha)	MOOVA herbicidal effect rating ([4]; Rate 0.0313 kg/ha)	MOOVA herbicidal effect rating ([4]; Rate 0.0625 kg/ha)	MOOVA herbicidal effect rating ([4]; Rate 0.1250 kg/ha)	SAGPY herbicidal effect rating (Sagittaria pygmaea, L.; Rate 0.2500 kg/ha)	CYPSE herbicidal effect rating ([1]; Rate 0.2500 kg/ha)	other results
Cn1c(C(F)(F)F)cc(=O)n(-c2ccc3snc(COC4C=CCCC4)c3c2)c1=O (centres unmarked) [Example 209, 3-{3-[(2-Cyclohexen-1-yloxy)methyl]-1,2-benzisothiazol-5-yl}-1-methyl-6-(trifluoromethyl)-2,4(1H,3H)-pyrimidinedione]	0.0	0.0	0.0	0.0	0.0	0.0	3.0	3.0	4.0	2.0	4.0	8.0	1.0	2.0	2.0	0.0	0.0	0.0			
CC(C)=CCOCc1nsc2ccc(-n3c(=O)cc(C(F)(F)F)n(C)c3=O)cc12 [Example 210, 1-Methyl-3-{3-[(3-methyl-2-butenyloxy)methyl]-1,2-benzisothiazol-5-yl}-6-(trifluoromethyl)-2,4(1H,3H)-pyrimidinedione]	0.0	0.0	0.0	0.0	0.0	0.0	3.0	4.0	6.0	2.0	7.0		9.0	9.0	9.0	9.0	9.0	9.0	0.0	0.0	ORYSAT herbicidal effect rating ([2]; Rate 0.2500 kg/ha): 7.0; CYPIR herbicidal effect rating (Cyperus iria; Rate 0.2500 kg/ha): 7.0; ECHORC herbicidal effect rating ([3]; Rate 0.2500 kg/ha): 9.0; MOOVA herbicidal effect rating ([4]; Rate 0.2500 kg/ha): 9.0
C=C(C)C1CC=C(COCc2nsc3ccc(-n4c(=O)ccn(C)c4=O)cc23)CC1 (centres unmarked) [Example 211, 1-Methyl-3-{3-{{[4-(1-methylvinyl)-1-cyclohexen-1-yl]methoxy}methyl}-1,2-benzisothiazol-5-yl}-2,4(1H,3H)-pyrimidinedione]	0.0	0.0	0.0	0.0	0.0	0.0	2.0	2.0	2.0	0.0	0.0	4.0	2.0	4.0	7.0	9.0	9.0	9.0	0.0	0.0	ORYSAT herbicidal effect rating ([2]; Rate 0.2500 kg/ha): 3.0; CYPIR herbicidal effect rating (Cyperus iria; Rate 0.2500 kg/ha): 4.0; ECHORC herbicidal effect rating ([3]; Rate 0.2500 kg/ha): 9.0; MOOVA herbicidal effect rating ([4]; Rate 0.2500 kg/ha): 9.0
C=C(C(=O)OC)C(C)OCc1nsc2ccc(-n3c(=O)cc(C(F)(F)F)n(C)c3=O)cc12 (centres unmarked) [Example 212, Methyl 3-{{5-[3,6-dihydro-3-methyl-2,6-dioxo-4-(trifluoromethyl)-1(2H)-pyrimidinyl]-1,2-benzisothiazol-3-yl}methoxy}-2-methylenebutyrate]	0.0	0.0	0.0	0.0	0.0	0.0	3.0	4.0	6.0	0.0	0.0	0.0	0.0	0.0	2.0	4.0	8.0	9.0	0.0	0.0	ORYSAT herbicidal effect rating ([2]; Rate 0.2500 kg/ha): 7.0; CYPIR herbicidal effect rating (Cyperus iria; Rate 0.2500 kg/ha): 2.0; ECHORC herbicidal effect rating ([3]; Rate 0.2500 kg/ha): 4.0; MOOVA herbicidal effect rating ([4]; Rate 0.2500 kg/ha): 9.0
